ChEMBL document CHEMBL1201862, “PubChem BioAssay data set” (2004)
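Step 1: Grow cells in 96-well plates. Step 2: Expose to compound for 48 hours at 5 concentrations. Step 3: Interpolate endpoints linearly; if unreached, use highest concentration. Here, GI50 denotes the concentration required for 50% inhibition of growth.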 Calls of active or inactive are those of the source. No stated cut-off is given here; in the data, active = GI50 up to about 1.1 µM and inactive = higher.

How the values were obtained:
Assay in all cases: growth of human tumour cells (NCI), 48 h
SW-620 = system: SW-620
K562 = system: K562
SK-MEL-28 = system: SK-MEL-28
HOP-62 = system: HOP-62
NCI-H460 = system: NCI-H460
NCI-H522 = system: NCI-H522
HCT-15 = system: HCT-15
A498 = system: A498
OVCAR-4 = system: OVCAR-4
LXFL 529 = system: LXFL 529
SNB-75 = system: SNB-75
SN12C = system: SN12C
UACC-257 = system: UACC-257
UO-31 = system: UO-31
SK-OV-3 = system: SK-OV-3
SF-539 = system: SF-539
SF-295 = system: SF-295

Row | Compound | GI50 (SW-620) | GI50 (K562) | GI50 (SK-MEL-28) | GI50 (HOP-62) | GI50 (NCI-H460) | GI50 (NCI-H522) | GI50 (HCT-15) [µM] | GI50 (A498) | GI50 (OVCAR-4) | GI50 (LXFL 529) | GI50 (SNB-75) | GI50 (SN12C) | GI50 (UACC-257) | GI50 (UO-31) | GI50 (SK-OV-3) | GI50 (SF-539) | GI50 (SF-295)
1 | C[N+](C)(C)C1CC([N+](C)(C)C)C2c3ccccc3C21 (stereo not given) | > 100 µM (inactive) | > 100 µM (inactive) | > 100 µM (inactive) | > 100 µM (inactive) | > 100 µM (inactive) | > 100 µM (inactive) | > 100 | > 100 µM (inactive) | > 100 µM (inactive) | > 100 µM (inactive) | > 100 µM (inactive) | > 100 µM (inactive) | > 100 µM (inactive) | > 100 µM (inactive) | > 100 µM (inactive) | > 100 µM (inactive) | > 100 µM (inactive)
2 | COc1ccc(C(=O)C(c2ccc(OC)cc2)C2(O)C(=O)Nc3c(C)cc(Cl)cc32)cc1 (stereo not given) | > 100 µM (inactive) | 21.6 µM (inactive) | > 100 µM (inactive) | > 100 µM (inactive) | > 100 µM (inactive) | 28 µM (inactive) | > 100 | > 100 µM (inactive) | 63.2 µM (inactive) | 37.7 µM (inactive) | 33.2 µM (inactive) | 58.1 µM (inactive) | 55 µM (inactive) | > 100 µM (inactive) | > 100 µM (inactive) | 69.8 µM (inactive) | 54.8 µM (inactive)
3 | Cn1cnc([N+](=O)[O-])c1Sc1nnnn1C | 13.1 µM (inactive) | 16.7 µM (inactive) | 14.3 µM (inactive) | > 100 µM (inactive) | 39.8 µM (inactive) | 6.38 µM (inactive) |  | 65.6 µM (inactive) | 16.9 µM (inactive) | 12.1 µM (inactive) | 25.3 µM (inactive) | 16.3 µM (inactive) | 16.3 µM (inactive) | 15.3 µM (inactive) | > 100 µM (inactive) | 18.2 µM (inactive) | > 100 µM (inactive)
4 | CN(/N=C\c1ccnc2ccccc12)c1ccccc1 | 23 µM (inactive) | 20.6 µM (inactive) | 29.8 µM (inactive) | 28.1 µM (inactive) | 23.7 µM (inactive) | 17.8 µM (inactive) | 17.1 | 21 µM (inactive) | 25.4 µM (inactive) | 26.1 µM (inactive) | 32.5 µM (inactive) | 29.9 µM (inactive) | 20 µM (inactive) | 25.1 µM (inactive) | 31.2 µM (inactive) | 25.7 µM (inactive) | 25.6 µM (inactive)
5 | O=C1C(=Cc2ccc(F)cc2)C(=O)c2ccccc21 | > 100 µM (inactive) | > 100 µM (inactive) | > 100 µM (inactive) | > 100 µM (inactive) | > 100 µM (inactive) | > 100 µM (inactive) | > 100 | > 100 µM (inactive) | > 100 µM (inactive) | > 100 µM (inactive) | 24.9 µM (inactive) |  | > 100 µM (inactive) | > 100 µM (inactive) | > 100 µM (inactive) | > 100 µM (inactive) | > 100 µM (inactive)
6 | NC(=O)c1nc(-c2ccc(Cl)c(Cl)c2)nc2ccccc12 | > 22 µM (inactive) | > 31.6 µM (inactive) |  | > 21.9 µM (inactive) | > 55.7 µM (inactive) | > 100 µM (inactive) | > 100 | 16.1 µM (inactive) | > 100 µM (inactive) | > 26.4 µM (inactive) | 2.68 µM (inactive) | > 100 µM (inactive) | > 29.1 µM (inactive) |  | 12.1 µM (inactive) | 13.4 µM (inactive) | 
7 | CSc1nnc(COc2ccc(Cl)cc2)o1 | > 100 µM (inactive) |  | > 100 µM (inactive) | > 100 µM (inactive) | > 100 µM (inactive) | > 100 µM (inactive) | > 100 | > 100 µM (inactive) | > 100 µM (inactive) | > 100 µM (inactive) | > 100 µM (inactive) | > 100 µM (inactive) | > 100 µM (inactive) | > 100 µM (inactive) | > 100 µM (inactive) | > 100 µM (inactive) | > 100 µM (inactive)
8 | OCC1OC(n2ccc3cnccc32)CC1O (stereo not given) | > 100 µM (inactive) | > 100 µM (inactive) | > 100 µM (inactive) | > 100 µM (inactive) | > 100 µM (inactive) | > 100 µM (inactive) | > 100 | > 100 µM (inactive) | > 100 µM (inactive) | > 100 µM (inactive) | > 100 µM (inactive) | > 100 µM (inactive) | > 100 µM (inactive) | > 100 µM (inactive) | > 100 µM (inactive) | > 100 µM (inactive) | > 100 µM (inactive)
9 | CCC12C=CCN(CCc3c([nH]c4ccccc34)/C=C\1)C2 (stereo not given) | > 100 µM (inactive) | > 100 µM (inactive) |  | > 100 µM (inactive) | > 100 µM (inactive) | > 100 µM (inactive) | > 100 | > 100 µM (inactive) | > 100 µM (inactive) | > 100 µM (inactive) | 44.6 µM (inactive) | > 100 µM (inactive) | > 100 µM (inactive) | > 100 µM (inactive) |  | > 100 µM (inactive) | > 100 µM (inactive)
